Measurements published in patent publication US20260124188A1, “mGluR receptor antagonists for use in prevention andor treatment of bone marrow lesions (BML) andor osteoporosis, cartilage loss, osteosclerosis and osteitis in a mammal” (Orphelion AB, priority 2022, published 2026).

Experiment: Dissolution of TT001 in I.V. formulation vehicle
Assay type: physicochemical
Conditions: 0.1 to 10 mg/ml in 40% w/v HPβCD solution in water for injection; a couple of hours for complete dissolution
Description: FORMULATION METHOD FOR THE PREPARATION OF TT001 FOR I.V. DOSING, 0.1 to 10 mg/ml The formulation method is applicable at concentrations in formulation between 0.1 and 10 mg/mL corresponding to 0.262 and 26.2 μmol/mL • TT001 M.W.: 381.8 g/mol • 10 The dissolution of TT001 is moderate, allow a couple of hours for complete dissolution.
• Preparation of 40% w/v HPβCD solution in water for injection • Excipients Hydroxypropyl-β-cyclodextrin, Kleptose, Roquette (HPβCD) 400 mg (40% w/v) • Water for injection to 1 ml (1.13 g) • is Appearance Clear • Density 1.13 g/cm^3
• Preparation of TT001 I.V. formulations between 0.1 and 10 mg/ml • TT001 parent form 0.1-10 mg • Vehicle (40% w/v HPβCD solution in water for injection) to 1 ml (1.13 g) • Appearance Clear • Density 1.13 g/cm^3 • Comments

- dissolution: moderate
SMILES: C[C@@H](Oc1nnc(-c2ccncc2)n1C)c1cc(-c2cccc(Cl)c2)on1 [TT001, 4-[5-[(1R)-1-[5-(3-Chlorophenyl)-3-isoxazolyl]ethoxy]-4-methyl-4H-1,2,4-triazol-3-yl]pyridine]
